From US6017933A, “Mannich bases of conjugated styryl ketones” (University of Saskatchewan Technologies Inc., priority 1999, dated 2000)

What was measured:
human WiDr colon cancer = details: hydrobromide salt; human WiDr colon cancer in vitro; cited from earlier work
Molt 4/C8 cells = assay: Cytotoxicity, Molt 4/C8 human T-lymphocytes
L1210 cells = assay: Cytotoxicity, murine L1210 leukemic cells; format: cell-based; details: Mus musculus, mean
CEM cells = assay: Cytotoxicity, CEM human T-lymphocytes
P388 cells = assay: Cytotoxicity, murine P388 leukemic cells (P388 D1); details: read-out: P388 cells IC50
[1] = system: proton translocating ATPase of Saccharomyces cerevisiae; details: cited from earlier work

SMILES | activity relative to 5-fluorouracil (human WiDr colon cancer) [times] | TIL1210 (Molt 4/C8 cells) (Molt 4/C8 cells; IC50 T-lymphocytes (Molt 4/C8)/IC50 L1210) | TIP388 (Molt 4/C8 cells) (Molt 4/C8 cells; IC50 T-lymphocytes (Molt 4/C8)/IC50 P388) | TIP388 and TIL1210 compared with compound 1b (Molt 4/C8 cells; human T-lymphocytes) | IC50 (Molt 4/C8 cells; read-out: Molt 4/C8 cells IC50) [µM] | IC50 (L1210 cells) [µM] | IC50 (CEM cells; Homo sapiens, CCRF-CEM, read-out: CEM cells IC50) [µM] | TIL1210 (CEM cells) (CEM cells; IC50 T-lymphocytes (CEM)/IC50 L1210) | TIP388 (CEM cells) (CEM cells; IC50 T-lymphocytes (CEM)/IC50 P388) | IC50 (P388 cells) [µM] | inhibition of proton translocating ATPase [1]
CCN(CC)CC(C)(C)C(=O)/C=C/c1ccc(Cl)cc1 [Compound 7] | 1.3 | 1.13 | 3.29 | inferior TIP388 and TIL1210 values than compound 1b | 7.24 | 6.39 | 1.94 | 0.30 | 0.88 | 2.2 | –
COc1ccc2[nH]c([S+]([O-])Cc3ncc(C)c(OC)c3C)nc2c1 (centres unmarked) [omeprazole] | – | – | – | – | – | – | – | – | – | – | inhibited the proton translocating ATPase of Saccharomyces cerevisiae
